# Results published in publication PMC4189701 (Drug Design, Development and Therapy, 2014).
# Where “and” joins values, the source holds several entries; their conditions need not be identical. Equal values may be shown once. Entries after “also recorded” stand apart in the source; their conditions may differ. Read-outs that look alike come from different tables or passages of the source.
# How the values were obtained:
# [1] = system: CYP3A; assay: CYP3A enzyme activity; assay type: in vitro ADME; conditions: primary human hepatocytes
# [2] = system: CYP3A4 mRNA; assay: CYP3A4 mRNA content in primary human hepatocytes; assay type: in vitro ADME; conditions: human
# [3] = cited from earlier work; for dose proportionality of Cmax or AUC: healthy subjects
# [4] = system: K103N; conditions: major efavirenz-resistant mutation; ref unpublished data; cited from earlier work
# [5] = Single-dose pharmacokinetics in healthy subjects; assay type: in vivo, human; conditions: for AUC(0-inf) / AUC(0-t) / Cmax / Tmax / half-life: human, plasma, oral; for AUC∞/dose / Cmax/dose / fe / CL/F: mean ± SD; for fe: unchanged in urine
# [6] = mice and dogs; preclinical studies; cited from earlier work
# [7] = Tolerability; assay type: in vivo, human; conditions: single dose
# [8] = Pharmacokinetics over single- and multiple-dose studies together; assay type: in vivo, human
# [9] = Tolerability over the whole study; assay type: in vivo, human
# [10] = Multiple-dose; assay type: in vivo, human; conditions: for steady state attained: RM-ANOVA of predose concentrations; for Accumulation index: AUC144–168h/AUC0–24h; for Accumulation index / AUCτ,ss/dose / CL/F / Cmax,ss/dose / fe: mean ± SD; for fe: unchanged in urine
# [11] = system: laboratory strains and clinical HIV-1 isolates; conditions: preclinical; ref unpublished data; cited from earlier work
# [12] = system: CYP3A4 messenger ribonucleic acid (mRNA); assay: CYP3A4 mRNA content in primary human hepatocytes; assay type: in vitro ADME; conditions: summary in words
# [13] = Tolerability; assay type: in vivo, human
# [14] = system: cytochrome P450 (CYP)-3A4; conditions: human hepatocytes; ref unpublished data; cited from earlier work
# [15] = 75–600 mg, single or multiple doses
structure (smiles),measurement,setting,value
"CCC1(c2ccccc2)C(=O)NC(=O)NC1=O [Phenobarbital, reference compound]",fold induction at 1 mM,"[1]; human, probe testosterone",9.9
same,fold induction at 1 mM,[2],8.9
Cc1ccnc2c1NC(=O)c1cccnc1N2C1CC1 [nevirapine],autoinduction phenomenon,[3],autoinduction phenomenon has also been observed
same,dose proportionality of Cmax or AUC,[3]; single oral administration 2.5–400 mg,increased less than dose-proportionally
"CCn1c(C(=O)c2cc(C)cc(C#N)c2)c(C(C)C)c(=O)[nH]c1=O [KM-023, 3-[3-ethyl-5-isopropyl-2,6-dioxo-1,2,3,6-tetrahydro-pyrimidine-4-carbonyl]-5-methyl benzonitrile]",activity against K103N,[4],showed activity against K103N
same,AUC(0-inf),[5]; 75 mg,11100 ng·h/mL
same,AUC(0-t),[5]; 75 mg,8740 ng·h/mL
same,Cmax,[5]; 75 mg,440 ± 68.3 ng/mL
same,Tmax,[5]; 75 mg,2 h
same,half-life,[5]; 75 mg,29.3 ± 12.5 h
same,AUC(0-inf),[5]; 150 mg,14100 ng·h/mL
same,AUC(0-t),[5]; 150 mg,11200 ng·h/mL
same,Cmax,[5]; 150 mg,621 ± 105 ng/mL
same,Tmax,[5]; 150 mg,2 h
same,half-life,[5]; 150 mg,29.5 ± 11.9 h
same,AUC(0-inf),[5]; 300 mg,18100 ng·h/mL
same,AUC(0-t),[5]; 300 mg,14700 ng·h/mL
same,Cmax,[5]; 300 mg,832 ± 201 ng/mL
same,Tmax,[5]; 300 mg,2 h
same,half-life,[5]; 300 mg,31.2 ± 21.1 h
same,AUC(0-inf),[5]; 600 mg,33700 ng·h/mL
same,AUC(0-t),[5]; 600 mg,26800 ng·h/mL
same,Cmax,[5]; 600 mg,1250 ng/mL
same,Tmax,[5]; 600 mg,3 h
same,half-life,[5]; 600 mg,29.7 ± 15.6 h
same,AUC∞/dose,[5]; single dose 75 mg,148.6 ± 64.1 ng·mL·h/mg
same,Cmax/dose,[5]; single dose 75 mg,5.9 ± 0.9 ng/mL/mg
same,fe,[5]; single dose 75 mg,0.94±0.64%
same,AUC∞/dose,[5]; single dose 150 mg,94.3 ± 38.2 ng·mL·h/mg
same,CL/F,[5]; single dose 150 mg,24.8 ± 5.6 L/h
same,Cmax/dose,[5]; single dose 150 mg,4.1 ± 0.7 ng/mL/mg
same,fe,[5]; single dose 150 mg,0.65±0.34%
same,AUC∞/dose,[5]; single dose 300 mg,60.4 ± 30.5 ng·mL·h/mg
same,CL/F,[5]; single dose 300 mg,40.3 ± 12.4 L/h
same,Cmax/dose,[5]; single dose 300 mg,2.8 ± 0.7 ng/mL/mg
same,fe,[5]; single dose 300 mg,0.52±0.41%
same,AUC∞/dose,[5]; single dose 600 mg,56.2 ± 31.1 ng·mL·h/mg
same,CL/F,[5]; single dose 600 mg,50.0 ± 21.9 L/h
same,Cmax/dose,[5]; single dose 600 mg,2.1 ± 0.7 ng/mL/mg
same,fe,[5]; single dose 600 mg,0.25±0.17%
same,fold induction at 0.3 µM,"[1]; human, probe testosterone",1.9
same,fold induction at 3 µM,"[1]; human, probe testosterone",5
same,fold induction at 30 µM,"[1]; human, probe testosterone",8.8
same,CYP3A enzyme activation,[1]; summary in words,exhibited a potential for CYP3A enzyme activation
same,findings in in vivo safety pharmacology studies,[6],no significant findings
same,"General disorder, all AEs, number of events",[7],2 (2)
same,"General disorder, all AEs, number of subjects",[7],2 (2)
same,"General disorder, drug-related AEs, number of events",[7],1 (1)
same,"General disorder, drug-related AEs, number of subjects",[7],1 (1)
same,"Genitourinary disorders, all AEs, number of events",[7],1 (1)
same,"Genitourinary disorders, all AEs, number of subjects",[7],1 (1)
same,"Genitourinary disorders, drug-related AEs, number of events",[7],1 (1)
same,"Genitourinary disorders, drug-related AEs, number of subjects",[7],1 (1)
same,"Musculoskeletal disorders, all AEs, number of events",[7],2
same,"Musculoskeletal disorders, all AEs, number of subjects",[7],1
same,"Musculoskeletal disorders, drug-related AEs, number of events",[7],2
same,"Musculoskeletal disorders, drug-related AEs, number of subjects",[7],1
same,"Nervous system disorders, all AEs, number of events",[7],4 (4)
same,"Nervous system disorders, all AEs, number of subjects",[7],4 (4)
same,"Nervous system disorders, drug-related AEs, number of events",[7],3 (3)
same,"Nervous system disorders, drug-related AEs, number of subjects",[7],3 (3)
same,"Ophthalmologic disorders, all AEs, number of events",[7],1 (1)
same,"Ophthalmologic disorders, all AEs, number of subjects",[7],1 (1)
same,"Oropharyngeal, respiratory, thoracic, and mediastinal disorders, all AEs, number of events",[7],7
same,"Oropharyngeal, respiratory, thoracic, and mediastinal disorders, all AEs, number of subjects",[7],6
same,"Oropharyngeal, respiratory, thoracic, and mediastinal disorders, drug-related AEs, number of events",[7],2
same,"Oropharyngeal, respiratory, thoracic, and mediastinal disorders, drug-related AEs, number of subjects",[7],1
same,"Total, all AEs, number of events",[7],17
same,dose proportionality of Cmax and AUC,[8]; [15],Dose proportionality was not observed; also recorded: less than dose-proportional nonlinear pharmacokinetics
same,pharmacokinetic characteristics (linearity),[8]; [15],dose- and time-dependent nonlinear pharmacokinetic characteristics; also recorded: dose-and time-dependent nonlinear pharmacokinetics; also recorded: dose- and time-dependent nonlinear pharmacokinetic profiles
same,fe,"[8]; all dose levels, unchanged drug in urine",less than 1%
same,"epistaxis, occurrences","[9]; both studies, all deemed drug-related",seven
same,"changes from baseline in clinical laboratory test results, vital signs, electrocardiography, computerized impedance cardiography, or physical examinations",[9]; single or multiple doses,no clinically meaningful changes from baseline
same,serious AEs,[9]; single or multiple doses 75–600 mg,No serious AEs occurred
same,tolerability,"[9]; single or multiple doses 75–600 mg, healthy subjects",generally well tolerated without serious adverse events; also recorded: well tolerated
same,steady state attained,[10]; 75 mg once daily,> 4 days
same,accumulation after multiple doses,[10]; 600 mg dose group,0.6 fold
same,steady state attained,[10]; 150–600 mg once daily,> 6 days
same,Accumulation index,[10]; multiple doses 75 mg,1.1±0.2
same,"AUCτ,ss/dose",[10]; multiple doses 75 mg,49.3 ± 13.4 ng·mL·h/mg
same,CL/F,[10]; multiple doses 75 mg,21.5 ± 5.4 L/h
same,"Cmax,ss/dose",[10]; multiple doses 75 mg,5.1 ± 1.7 ng/mL/mg
same,fe,[10]; multiple doses 75 mg,0.52±0.40%
same,Accumulation index,[10]; multiple doses 150 mg,1.1±0.5
same,"AUCτ,ss/dose",[10]; multiple doses 150 mg,55.0 ± 27.1 ng·mL·h/mg
same,CL/F,[10]; multiple doses 150 mg,22.3 ± 10.2 L/h
same,"Cmax,ss/dose",[10]; multiple doses 150 mg,4.9 ± 1.7 ng/mL/mg
same,fe,[10]; multiple doses 150 mg,0.75±0.52%
same,Accumulation index,[10]; multiple doses 300 mg,0.9±0.2
same,"AUCτ,ss/dose",[10]; multiple doses 300 mg,22.7 ± 6.3 ng·mL·h/mg
same,CL/F,[10]; multiple doses 300 mg,48.0 ± 17.6 L/h
same,"Cmax,ss/dose",[10]; multiple doses 300 mg,2.4 ± 0.6 ng/mL/mg
same,fe,[10]; multiple doses 300 mg,0.28±0.15%
same,Accumulation index,[10]; multiple doses 600 mg,0.6 and 0.6±0.1
same,"AUCτ,ss/dose",[10]; multiple doses 600 mg,17.1 ± 9.5 ng·mL·h/mg
same,CL/F,[10]; multiple doses 600 mg,71.9 ± 28.1 L/h
same,"Cmax,ss/dose",[10]; multiple doses 600 mg,1.8 ± 0.8 ng/mL/mg
same,fe,[10]; multiple doses 600 mg,0.18±0.12%
same,antiviral activity,[11],low-nanomolar range
same,CYP3A4 messenger ribonucleic acid induction,[12],CYP3A4 messenger ribonucleic acid induction
same,fold induction at 0.3 µM,[2],2.3
same,fold induction at 3 µM,[2],6.2
same,fold induction at 30 µM,[2],6.2
same,"Gastrointestinal disorders, all AEs, number of events",[13]; multiple doses,3 (3)
same,"Gastrointestinal disorders, all AEs, number of subjects",[13]; multiple doses,3 (3)
same,"Gastrointestinal disorders, drug-related AEs, number of events",[13]; multiple doses,3 (3)
same,"Gastrointestinal disorders, drug-related AEs, number of subjects",[13]; multiple doses,3 (3)
same,"Nervous system disorders, all AEs, number of events",[13]; multiple doses,4 (4)
same,"Nervous system disorders, all AEs, number of subjects",[13]; multiple doses,4 (4)
same,"Nervous system disorders, drug-related AEs, number of events",[13]; multiple doses,4 (4)
same,"Nervous system disorders, drug-related AEs, number of subjects",[13]; multiple doses,4 (4)
same,"Oropharyngeal, respiratory, thoracic, and mediastinal disorders, all AEs, number of events",[13]; multiple doses,13
same,"Oropharyngeal, respiratory, thoracic, and mediastinal disorders, all AEs, number of subjects",[13]; multiple doses,12
same,"Oropharyngeal, respiratory, thoracic, and mediastinal disorders, drug-related AEs, number of events",[13]; multiple doses,9
same,"Oropharyngeal, respiratory, thoracic, and mediastinal disorders, drug-related AEs, number of subjects",[13]; multiple doses,8
same,"Skin and subcutaneous tissue disorders, all AEs, number of events",[13]; multiple doses,4
same,"Skin and subcutaneous tissue disorders, all AEs, number of subjects",[13]; multiple doses,3
same,"Skin and subcutaneous tissue disorders, drug-related AEs, number of events",[13]; multiple doses,1 (1)
same,"Skin and subcutaneous tissue disorders, drug-related AEs, number of subjects",[13]; multiple doses,1 (1)
same,"Total, drug-related AEs, number of subjects",[13]; multiple doses,16
same,"epistaxis, occurrences",[13]; multiple-dose study,five
same,"epistaxis, subjects",[13]; multiple-dose study,four
same,CYP3A4 induction,[14],moderately induced
O=C1Nc2ccc(Cl)cc2[C@@](C#CC2CC2)(C(F)(F)F)O1 [efavirenz],autoinduction phenomenon,[3],autoinduction phenomenon has also been observed
same,dose proportionality of Cmax or AUC,"[3]; single oral administration 100–1,600 mg",increased less than dose-proportionally
